Measured values taken from US20100075907A1, “NEUROMEDIN U RECEPTOR AGONISTS AND USES THEREOF” (priority 2006, published 2010).
Non-standard residues stand in square brackets, D forms with d. Residues, ends and D or L forms follow the SMILES beside them. No end group written: not given here. hArg = N=C(N)NCCCC[C@H](N)C(=O)O; dNle = CCCC[C@@H](N)C(=O)O

Molecular target: hNMUR2 (Homo sapiens, UniProt Q9GZQ4)
Experiment: 125I-hNMU-25 binding assay, human NMUR2 membranes
Design: expressed in transfected cells; host or cells: HEK-293 FLP-In cells (pcDNA5); HEK-293/aeq17 lines (pcDNA3.1) were also made; % inhibition of NMU-25 binding / % Activity: concentration or dose not given beside the values
Description: Confluent cell monolayers expressing NMU receptors (the HEK cells described above) were harvested with phosphate buffered saline, collected by centrifugation, and resuspended in membrane buffer (50 mM TrisCl pH 7.4, 5 mM MgCl2, 1× Protease Inhibitor Cocktail, 10 μM phosphoramidon). After the cell pellet was homogenized, the solution was centrifuged at 18,000 rpm for 20 minutes at 4° C. The pellet was resuspended in membrane buffer to yield a final concentration of 0.5-5 μg/μL of membrane and stored at −80° C.
Experiments were performed in assay buffer (25 mM TrisCl, pH 7.4, 10 mM MgCl2, 2 mM EDTA, 1× Protease Inhibitor Cocktail, 100 μg/mL Bacitricin, 10 μM phosphoramidon) in 200 μL volumes in a 96-well format using 2-5 μg of membrane and 0.1 nM ^125I-hNMU-25 (about 12,000 cpm/well). For non-specific binding, 1 μM hNMU-25 was added. About 5 μL of peptides were added to measure antagonist activity, and the entire reaction was incubated at room temperature with shaking for 80 minutes. The reaction was terminated by rapid filtration through 0.3% poly-ethylenimine presoaked Millipore 96-well filter plates and washed with ice-cold buffer (5 mM TrisCl pH 7.4, 10 mM MgCl2, 2.5 mM EDTA, 0.04% Triton X-100). Plates were air-dried overnight at room temperature and recovered radioactivity was determined by standard scintillation counting. IC50 values were determined using GraphPad Prism software.
Concentration-response curves and radioligand-binding data were fitted using Prism (GraphPad Software). Results are summarized below in Tables 8 and 9.

hNMUR2, sequence (Q9GZQ4 whole entry): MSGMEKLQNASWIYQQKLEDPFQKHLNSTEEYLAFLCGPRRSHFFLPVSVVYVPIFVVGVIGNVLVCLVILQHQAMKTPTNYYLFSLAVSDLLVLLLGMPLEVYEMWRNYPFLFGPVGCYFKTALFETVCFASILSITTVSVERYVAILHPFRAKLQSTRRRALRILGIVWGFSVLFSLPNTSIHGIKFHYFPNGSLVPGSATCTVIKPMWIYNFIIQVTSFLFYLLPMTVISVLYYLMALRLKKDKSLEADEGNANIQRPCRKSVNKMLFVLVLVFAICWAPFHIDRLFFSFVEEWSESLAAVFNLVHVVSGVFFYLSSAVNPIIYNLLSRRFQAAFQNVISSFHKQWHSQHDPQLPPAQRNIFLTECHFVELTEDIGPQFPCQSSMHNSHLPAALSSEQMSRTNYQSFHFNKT

| Molecule | % Activity (Table 8, HEK-hR2, binding) [%] | IC50 (Table 8, HEK-hR2, binding) [nM] | % Activity (Table 9, HEK-hR2, binding) [%] | further results |
| --- | --- | --- | --- | --- |
| CC(C)C[C@@H](NC(=O)[C@H](Cc1ccccc1)NC(=O)[C@@H](N)Cc1ccc(O)cc1)C(=O)N[C@@H](Cc1c[nH]c2ccccc12)C(=O)N[C@@H](CCCNC(=N)N)C(=O)N1CCC[C@H]1C(=O)N[C@@H](CCCNC(=N)N)C(=O)N[C@@H](CC(N)=O)C(N)=O [Agonist B, YF-(D-L)-WRPRN-CONH2] (H-YF[dL]WRPRN-NH2) | 35 | > 1000 | – | – |
| C[C@@H](NC(=O)[C@H](Cc1ccccc1)NC(=O)[C@@H](N)Cc1ccc(O)cc1)C(=O)N[C@@H](Cc1c[nH]c2ccccc12)C(=O)N[C@@H](CCCNC(=N)N)C(=O)N1CCC[C@H]1C(=O)N[C@@H](CCCNC(=N)N)C(=O)N[C@@H](CC(N)=O)C(N)=O [Agonist D, YF-(D-A)-WRPRN-CONH2] (H-YF[dA]WRPRN-NH2; N-terminus assumed) | 0 | > 1000 | – | – |
| CC(=O)N[C@@H](Cc1ccccc1)C(=O)N[C@H](CC(C)C)C(=O)N[C@@H](Cc1c[nH]c2ccccc12)C(=O)N[C@@H](CCCNC(=N)N)C(=O)N1CCC[C@H]1C(=O)N[C@@H](CCCNC(=N)N)C(=O)N[C@@H](CC(N)=O)C(N)=O [Agonist E, Ac-F-(D-L)-WRPRN-CONH2] (Ac-F[dL]WRPRN-NH2) | 5 | > 1000 | – | – |
| CC(C)C[C@H](NC(=O)[C@H](Cc1c[nH]c2ccccc12)NC(=O)[C@@H](N)Cc1ccccc1)C(=O)N[C@@H](Cc1ccccc1)C(=O)N[C@@H](CCCNC(=N)N)C(=O)N1CCC[C@H]1C(=O)N[C@@H](CCCCNC(=N)N)C(=O)N[C@@H](CC(N)=O)C(N)=O [Agonist I, FWLFRP-(Harg)-N-CONH2] (H-FWLFRP[hArg]N-NH2) | – | – | 90 | – |
| CC(C)C[C@H](NC(=O)[C@H](Cc1c[nH]c2ccccc12)NC(=O)[C@@H](N)Cc1ccccc1)C(=O)N[C@@H](Cc1ccccc1)C(=O)N[C@@H](CCCNC(=N)N)C(=O)N[C@@H](C)C(=O)N[C@@H](CCCCNC(=N)N)C(=O)N[C@@H](CC(N)=O)C(N)=O [Agonist J, FWLFRA-(Harg)-N-CONH2] (H-FWLFRA[hArg]N-NH2) | – | – | 63 | IC50 (Table 9, HEK-hR2, binding): 150 nM |
| CCCC[C@@H](NC(=O)[C@H](CCCNC(=N)N)NC(=O)[C@H](C)NC(=O)[C@H](CCCNC(=N)N)NC(=O)[C@H](Cc1ccccc1)NC(=O)[C@H](CC(C)C)NC(=O)[C@H](Cc1ccccc1)NC(=O)[C@@H](N)Cc1c[nH]c2ccccc12)C(N)=O [Agonist K, WFLFRAR-(D-Nle)-CONH2] (H-WFLFRAR[dNle]-NH2) | – | – | 100 | – |
| CC(C)C[C@H](NC(=O)[C@H](Cc1c[nH]c2ccccc12)NC(=O)[C@H](Cc1ccccc1)NC(=O)CNC(=O)[C@H](CCCNC(=N)N)NC(=O)[C@H](CO)NC(=O)[C@H](CCC(N)=O)NC(=O)[C@H](CO)NC(=O)[C@H](C)NC(=O)[C@H](Cc1ccccc1)NC(=O)[C@@H]1CCCN1C(=O)[C@H](CO)NC(=O)[C@H](CCC(N)=O)NC(=O)[C@H](Cc1ccccc1)NC(=O)[C@H](CCC(=O)O)NC(=O)[C@H](CCC(=O)O)NC(=O)[C@H](CC(=O)O)NC(=O)[C@@H](NC(=O)[C@H](CCCNC(=N)N)NC(=O)[C@@H](N)Cc1ccccc1)C(C)C)C(=O)N[C@@H](Cc1ccccc1)C(=O)N[C@@H](CCCNC(=N)N)C(=O)N1CCC[C@H]1C(=O)N[C@@H](CCCCNC(=N)N)C(=O)N[C@@H](CC(N)=O)C(N)=O [Agonist O] (H-FRVDEEFQSPFASQSRGFWLFRP[hArg]N-NH2; N-terminus assumed) | – | – | 92 | IC50 (Table 9, HEK-hR2, binding): 3 nM |
| CC(C)C[C@H](NC(=O)[C@H](Cc1c[nH]c2ccccc12)NC(=O)[C@H](Cc1ccccc1)NC(=O)CNC(=O)[C@H](CCCNC(=N)N)NC(=O)[C@H](CO)NC(=O)[C@H](CCC(N)=O)NC(=O)[C@H](CO)NC(=O)[C@H](C)NC(=O)[C@H](Cc1ccccc1)NC(=O)[C@@H]1CCCN1C(=O)[C@H](CO)NC(=O)[C@H](CCC(N)=O)NC(=O)[C@H](Cc1ccccc1)NC(=O)[C@H](CCC(=O)O)NC(=O)[C@H](CCC(=O)O)NC(=O)[C@H](CC(=O)O)NC(=O)[C@@H](NC(=O)[C@H](CCCNC(=N)N)NC(=O)[C@@H](N)Cc1ccccc1)C(C)C)C(=O)N[C@@H](Cc1ccccc1)C(=O)N[C@@H](CCCNC(=N)N)C(=O)N[C@@H](C)C(=O)N[C@@H](CCCCNC(=N)N)C(=O)N[C@@H](CC(N)=O)C(N)=O [Agonist P] (H-FRVDEEFQSPFASQSRGFWLFRA[hArg]N-NH2; N-terminus assumed) | – | – | 81 | IC50 (Table 9, HEK-hR2, binding): 150 nM |
| CCCC[C@@H](NC(=O)[C@H](CCCNC(=N)N)NC(=O)[C@@H]1CCCN1C(=O)[C@H](CCCNC(=N)N)NC(=O)[C@H](Cc1ccccc1)NC(=O)[C@H](CC(C)C)NC(=O)[C@H](Cc1c[nH]c2ccccc12)NC(=O)[C@H](Cc1ccccc1)NC(=O)CNC(=O)[C@H](CCCNC(=N)N)NC(=O)[C@H](CO)NC(=O)[C@H](CCC(N)=O)NC(=O)[C@H](CO)NC(=O)[C@H](C)NC(=O)[C@H](Cc1ccccc1)NC(=O)[C@@H]1CCCN1C(=O)[C@H](CO)NC(=O)[C@H](CCC(N)=O)NC(=O)[C@H](Cc1ccccc1)NC(=O)[C@H](CCC(=O)O)NC(=O)[C@H](CCC(=O)O)NC(=O)[C@H](CC(=O)O)NC(=O)[C@@H](NC(=O)[C@H](CCCNC(=N)N)NC(=O)[C@@H](N)Cc1ccccc1)C(C)C)C(N)=O [Agonist Q] (H-FRVDEEFQSPFASQSRGFWLFRPR[dNle]-NH2) | – | – | 89 | – |
| CC(C)C[C@H](NC(=O)[C@H](Cc1ccccc1)NC(=O)[C@@H](N)Cc1ccc(O)cc1)C(=O)N[C@@H](Cc1ccccc1)C(=O)N[C@@H](CCCNC(=N)N)C(=O)N1CCC[C@H]1C(=O)N[C@@H](CCCNC(=N)N)C(=O)N[C@@H](CC(N)=O)C(N)=O [NMU-8, reference compound] | – | – | 100 | – |
| Ac-FFRPRN-NH2 [Agonist F, Ac-FFRPRN-CONH2] | 12 | > 1000 | – | – |
| FALFRPRN-NH2 [Agonist N] | – | – | 100 | – |
| H-FRVDEEFQSPFASQSRGYFLFRPRN-NH2 [hNMU-25, reference compound] | – | – | 100 | IC50 (binding, human R2): 0.056 nM |
| H-FRVDEEFQSPFASQSRGYFWRPRN-NH2 [Agonist G] | 33 | – | – | – |
| H-FWLFRARN-NH2 [Agonist L] | – | – | 100 | – |
| H-YFGWRPRN-NH2 [Agonist C] | 0 | > 1000 | – | – |
| WALFRARN-NH2 [Agonist M] | – | – | 71 | IC50 (Table 9, HEK-hR2, binding): 180 nM |
| YFWRPRN-NH2 [Agonist A, YFWRPRN-CONH2] | 0 | > 1000 | – | – |
